Measured values published in patent US12649980B2, “Three-dimensional surface for protein and small molecule microarrays” (The Johns Hopkins University, priority 2019, dated 2026).

How the values were obtained:
GLUT1 = biological target: T1, GLUT1 (Homo sapiens, UniProt P11166); test: rapafucin 2D microarray screen with GLUT1-containing cell lysate; format: binding; settings: signal-to-background ratio, 2D surface, same lysate and conditions
T1 construct: The full-length human SLC2A1, SLC2A3, and SLC2A4 genes were PCR amplified and inserted into pLenti6M vector 2; expressed in transfected cells
T1 sequence (P11166 1-492): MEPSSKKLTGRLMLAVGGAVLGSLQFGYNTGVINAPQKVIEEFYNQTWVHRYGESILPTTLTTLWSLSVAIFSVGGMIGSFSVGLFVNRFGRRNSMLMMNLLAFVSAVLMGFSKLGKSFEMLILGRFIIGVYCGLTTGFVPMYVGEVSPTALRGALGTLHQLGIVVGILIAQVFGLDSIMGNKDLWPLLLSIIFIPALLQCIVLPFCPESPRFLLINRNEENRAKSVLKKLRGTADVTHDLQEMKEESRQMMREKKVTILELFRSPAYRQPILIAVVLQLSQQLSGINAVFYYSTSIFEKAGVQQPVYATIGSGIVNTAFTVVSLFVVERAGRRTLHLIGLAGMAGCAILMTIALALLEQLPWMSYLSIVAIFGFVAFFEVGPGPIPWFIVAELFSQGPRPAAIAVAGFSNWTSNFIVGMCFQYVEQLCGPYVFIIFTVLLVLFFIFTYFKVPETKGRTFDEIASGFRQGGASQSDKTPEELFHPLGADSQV
From the text: Once stock solutions of the rapafucin library were arrayed on the 2D or 3D surface and most of solvent carrier was evaporated, the crosslinking reaction was initiated by irradiating the surfaces with 365-nm wavelength UV light. Kawatani and Osada, Medchemcomm 2014, 5, 277-287. […] To screen for GLUT1-interacting rapafucins, GLUT1 was stably overexpressed in HEK293T cells and generated cell lysates containing detergent-solubilized recombinant GLUT1 (FIG. 10). The GLUT1-containing cell lysate was then incubated on both 2D and 3D rapafucin microarrays. After washing the slides to remove unbound proteins, the bound GLUT1 protein was detected with anti-GLUT1 antibodies, followed by visualization with Cy5-labeled secondary antibodies using a microarray scanner. Rapafucins were scored as positive hits when the corresponding SBR was greater than 3. Based on this criterion, a total of 17 rapafucin hits and one positive control BAY-876, a specific GLUT1 inhibitor, Siebeneicher et al., ChemMedChem 2016, 11, 2261-2271, were identified on the 3D rapafucin microarray. In contrast, only one hit (WL13-F11, also among the 17 hits identified from the 3D rapafucin microarray) was identified on the 2D rapafucin microarray (Table 1, FIG. 11).
In the optimization experiments, the slides were incubated with 50 nM purified recombinant FKBP12 for 1 hour, while in the GLUT1 screening, 10 mg/mL of cell lysate containing DDM-solubilized GLUT1 from GLUT1 overexpressed HEK293T was incubated for 1 hour. Successively, primary antibody and CY5 labeled secondary antibody were added for 1 hour. The chips were washed in buffer A for 5 mins 3 times after the sample and antibodies incubation. After centrifugation, the dried chips were scanned by a microarray scanner (Genepix, US) at 635-nm wavelength. The final result was analyzed by GenePix software.

MCF-7 = test: [3H]-2DG uptake assay in MCF-7 cells; format: cell-based, human
Method: (§1) Hay, Nat. Rev. […] To determine whether RgA could inhibit glucose uptake in cancer cell lines in addition to A549, the impact of RgA on [3H]-2DG uptake in six other cancer cell lines, including HCC1954, MCF-7, PANC10.05, Jurkat T, HeLa, and RKO was measured (FIG. 3A, Table 3).
(§2) The inhibitory activity of compounds on glucose transport was analyzed by measuring the cell uptake of [3H]-2DG as previously described. Ulanovskaya et al., Chem. Biol. 2011, 18, 222-230. Briefly, cells were washed twice and incubated in low-glucose medium for 10 min. Cells were added drugs and incubated for another 10 min before adding [3H]-2DG. After 10 min incubation with [3H]-2DG, cells were washed twice and lysed with 0.2 N NaOH plus 0.2% SDS. The cell lysate was transferred to a new tube containing 1 mL of optiphase supermix. Glucose uptake was quantified with a scintillation counter.

HeLa = test: [3H]-2DG uptake assay in HeLa cells; format: cell-based, human
Method: as §1, §2

A549 = test: Alamar blue cell proliferation assay, A549; format: cell-based, human; settings: A549, 72 h; read-out: IC50 Assay B (Alamar blue cell proliferation)
Method: (§3) The effects of RgA on cell growth, survival, and cell death was then determined. […] Treatment with 5 μM of RgA caused an increase in G1 phase by approximately 23% in comparison to control and approximately 7% and 17% decreases in cells in S and G2/M phases, respectively. The induction in G1 phase cell cycle arrest by RgA is dose-dependent (FIG. 5A, FIG. 16). […] Jones and Thompson, Genes Dev. 2009, 23, 537-548. […] The IC50 values of RgA against several human cancer cell lines also was determined using the alamar blue cell proliferation assay.
(§4) Cells were seeded into a 96-well plate (Costar) in 180 μL culture media. After an overnight recovery, drugs were added and incubated for 72 h. After drug incubation, cells were added with 20 μL of alamar blue reagent and the plates were incubated at 37° C. for 6 h before reading the fluorescence (544 nm Ex/590 nm Em) with a plate reader. GraphPad Prism (v4.03) software was used to determine IC50 values using a four parameter logistic regression.

PANC10.05 = test: Alamar blue cell proliferation assay, PANC10.05; format: cell-based, human; settings: PANC 10.05, 72 h; read-out: IC50 Assay B (Alamar blue cell proliferation)
Method: as §3, §4

Jurkat T = test: Alamar blue cell proliferation assay, Jurkat T; format: cell-based, human; settings: 72 h, read-out: IC50 Assay B (Alamar blue cell proliferation)
Method: as §3, §4

DLD1 WT = test: [3H]-2DG uptake in DLD1 WT cells; format: cell-based; settings: DLD1 wild type
Method: as §2

FKBP25 = FKBP25 (Homo sapiens, UniProt Q00688); test: peptidyl prolyl cis-trans isomerase activity inhibition, FKBP25; format: biochemical; settings: inhibition of prolyl isomerase activity
FKBP52 = FKBP52 (Homo sapiens, UniProt Q02790); test: peptidyl prolyl cis-trans isomerase activity inhibition, FKBP52; format: biochemical; settings: inhibition of prolyl isomerase activity
MCF-7 cells = test: LC/MS metabolite profiling of MCF-7 cells; format: cell-based, human
Method: To understand the metabolic impact of GLUT inhibition by RgA, the steady-state levels of 272 metabolites was determined using LC/MS, Liu et al, Anal. Chem. 2014, 86, 2175-2184, in MCF-7 cells upon treatment with RgA for 30 min and 6 h, respectively.
MCF-7 Cells were seeded into 6-well plate at a density of 5×10^5 cells per well, allowed to recover overnight and subsequently treated with RgA or vehicle control for 30 min and 6 h, respectively. Metabolites were extracted and analyzed as previously described. Liu et al., Anal. Chem. 2014, 86, 2175-2184.

[1] = MCF-7, 30 min and 6 h treatment

Chain of FKBP52 (Q02790 whole entry, species assumed): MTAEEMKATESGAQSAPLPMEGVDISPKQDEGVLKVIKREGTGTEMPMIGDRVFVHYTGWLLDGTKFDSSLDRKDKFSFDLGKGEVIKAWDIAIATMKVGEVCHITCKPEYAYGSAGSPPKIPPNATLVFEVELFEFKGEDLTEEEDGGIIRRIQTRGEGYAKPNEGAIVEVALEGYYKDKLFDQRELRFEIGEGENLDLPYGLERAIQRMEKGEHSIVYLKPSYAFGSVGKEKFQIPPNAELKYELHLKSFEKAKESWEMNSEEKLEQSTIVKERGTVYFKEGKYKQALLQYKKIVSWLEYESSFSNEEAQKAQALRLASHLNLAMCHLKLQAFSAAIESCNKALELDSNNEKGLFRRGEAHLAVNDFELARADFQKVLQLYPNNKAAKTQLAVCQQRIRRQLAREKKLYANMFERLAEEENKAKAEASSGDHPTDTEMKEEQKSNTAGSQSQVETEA
Chain of FKBP25 (Q00688 whole entry, species assumed): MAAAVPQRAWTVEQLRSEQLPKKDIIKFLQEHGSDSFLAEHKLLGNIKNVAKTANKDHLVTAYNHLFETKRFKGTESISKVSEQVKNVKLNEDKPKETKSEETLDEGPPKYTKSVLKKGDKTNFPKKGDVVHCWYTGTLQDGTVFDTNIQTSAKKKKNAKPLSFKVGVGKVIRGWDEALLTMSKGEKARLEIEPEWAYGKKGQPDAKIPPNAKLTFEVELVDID

CCC(C)C1C(=O)NCC(=O)N(C)CCC=CC(=O)OCC(C)(C)C(=O)C(=O)N2CCCCC2C(=O)OC(CCc2ccc(OC)c(OC)c2)c2cccc(c2)NC(=O)CCC(=O)N(C)C(CC(C)C)C(=O)NC(Cc2ccccc2)C(=O)N1C (stereo not shown) [JW11-D2, Rapaglutin A]
2D SBR (GLUT1): <3.0 | IC50 (MCF-7; MCF-7): 3.3 nM | effect of high concentration of FK506 and rapamycin on the inhibitory activity of RgA (MCF-7; MCF-7, 100 nM RgA, 20 μM FK506, 20 μM Rapamycin): negligible effect | IC50 (HeLa): 18.9 nM | IC50 (A549): 189 nM | IC50 (PANC10.05): 119 nM | IC50 (Jurkat T): 132 nM | EC50 (DLD1 WT): 17.5 ± 2.5 nM | Ki (FKBP25): > 5000 nM | Ki (FKBP52): 32 ± 3 nM | cellular ATP level and AMP/ATP ratio (MCF-7 cells; MCF-7): increase in the AMP/ATP ratio | TCA cycle and redox status (MCF-7 cells; [1]): not significantly affected | upper glycolytic and pentose phosphate pathway intermediates (G6P, F1,6-BP, DHAP, 6PGA, R5P, E4P) (MCF-7 cells; [1]): significant decreases
